According to patent US11998602B2, “Methods for promoting myelination and for treating demyelinating diseases” (The Scripps Research Institute, priority 2018, dated 2024):

Experiments:
[1] = test system: Rat primary optic nerve OPCs; test: High content imaging assay of OPC differentiation (MBP, A2B5, DAPI cell counts); format: cell-based
Experimental: Rat primary optic nerve OPCs were isolated by panning (>99% A2B5^+) and cultured in poly-D-lysine (10 μg/ml)-coated TC dishes in OPC culture media (Neurobasal Media, Invitrogen) supplemented with B27-without vitamin A (Invitrogen), 1× non-essential amino acids, 1× Glutamax, 1× anti-anti, β-mercaptoethanol and PDGF-AA (50 ng/ml; Peprotech) at 37° C. with 5% CO2. The culture medium was replaced every 48 h and cells were collected before the confluency reached 60% to maintain a naive state. For differentiation, OPCs were plated at 1 million cells in one 10 cm petri-dish filled with differentiation media, which is identical to the culture media, but with PDGF-AA at 2 ng/ml. T3 and DMSO were used as the positive control and negative control, respectively. Five replicates of cells were collected at different times (0, 3, and 6 days) for metabolomics studies. High content imaging. For dose-response co-treatment experiments, black, clear-bottom 384-well plates (Greiner) were coated with poly-D-lysine (10 μg ml^−1 in PBS). miconazole and benztropine were added at 8 doses in differentiation media; 3-fold dilutions down from 10 μM. taurine was then added at 8 concentrations; 3-fold dilutions down from 20 mM. This 384-well format was also utilized for experiments combining benztropine (0.5 μM), miconazole (2 μM) or T3 (1 μM) with propargylglycine (0.1, 3, 10, 30 μM), reduced glutathione (1, 10, 30, 100 μM) or ascorbic acid ([…]). OPCs were then seeded at a density of 1,000 cells per well, and the plates were incubated at 37° C. with 5% CO2 for 6 days. For time course experiments, cells were seeded at a density of 5,000 cells per well in poly-D-lysine-coated 96-well plates. Cells were treated with DMSO (0.1%), benztropine (0.5 μM), miconazole (2 μM) or T3 (1 μM) on day 0, and taurine (20 mM) was added in combination at 0, 1 or 3 days post-drug treatment. The plates were incubated at 37° C. with 5% CO2 for 6 days. On day 6, cells were then fixed for 20 min with 4% formaldehyde solution and stained with mouse anti-Myelin Basic Protein (MBP) antibody (MAB382, Millipore) or anti-A2B5 antibody (MAB312, Millipore) in 3% BSA, 0.3% Triton X-100 with overnight incubation at 4° C. The cells were washed and incubated with secondary antibody (goat anti-mouse Alexa Fluor488) and DAPI (Invitrogen) for 1 h at room temperature. The cells were washed and plates were sealed and imaged using an Opera confocal imaging reader (Perkin Elmer) or a Cellomics Cell Insight imaging reader (Thermo). An air ×10 lens was used to capture 9 images per well at both wavelengths (488 and 365 nm), with each image representing a different unique locations field in a single well. For image analysis, DAPI-stained nuclei and MBP-positive or A2B5-positive cell bodies were detected using an algorithm that selects for positive cell bodies and nuclei within a range of fluorescent emission values and sizes as determined by fitting parameters to positive (T3, 1 μM) and negative controls (DMSO, 0.1%). The numbers of DAPI-positive objects were enumerated in experiments where cell counts were required. Numerical results from the analyzed images were later exported for analysis using Excel (Microsoft) and/or Genedata software.

[2] = test system: Rat primary optic nerve OPCs; test: In vitro OPC differentiation assay, MBP expression by Western blot; format: cell-based
Experimental: Rat primary optic nerve OPCs were isolated by panning (>99% A2B5^+) and cultured in poly-D-lysine (10 μg/ml)-coated TC dishes in OPC culture media (Neurobasal Media, Invitrogen) supplemented with B27-without vitamin A (Invitrogen), 1× non-essential amino acids, 1× Glutamax, 1× anti-anti, β-mercaptoethanol and PDGF-AA (50 ng/ml; Peprotech) at 37° C. with 5% CO2. The culture medium was replaced every 48 h and cells were collected before the confluency reached 60% to maintain a naive state. For differentiation, OPCs were plated at 1 million cells in one 10 cm petri-dish filled with differentiation media, which is identical to the culture media, but with PDGF-AA at 2 ng/ml. T3 and DMSO were used as the positive control and negative control, respectively. Five replicates of cells were collected at different times (0, 3, and 6 days) for metabolomics studies.
Western blot analysis. OPCs were plated in basal differentiation medium at 1.7×10^5 cells/well and treated for 6 days with benztropine (0.5 μM), miconazole (2 μM) with and without the tested endogenous metabolites, T3 (1 μM) or DMSO. After washing with PBS, cells were collected in ice cold RIPA buffer containing protease and phosphatase inhibitors. Following incubation on ice for >20 min and sonication, lysed cells were centrifuged (16,000 g, 15 min at 4° C.). Total protein was quantified using a BCA analysis and 25 μg of protein from each sample was denatured by boiling with Bolt LDS Sample Buffer (4×) and Sample Reducing Agent (10×). Proteins were electrophoresed using Bolt 4-12% Bis-Tris gels (Life Technologies) and transferred to a PVDF membrane (Bio-Rad). The membrane was blocked with Odyssey PBS Blocking Buffer (LI-COR) and incubated overnight at 4° C. with anti-MBP (mouse, 1:2000) and anti-actin (mouse, 1:5000). Blots were incubated with […] secondary donkey anti-mouse antibody (LI-COR, 1:7500) and imaged using Odyssey CLx and Image Studio (LI-COR).

NCCS(=O)(=O)O [taurine, 2-aminoethanesulfonic acid]
Enhancement of overall cell number compared to drug treatment alone ([1]; >2 mM taurine with miconazole or benztropine, 6 days): over 20% | Days of taurine addition with the most significant impact on MBP expression ([1]; dosing initiated at days 0 to 5, evaluated at day 6): between days 1 and 3 | Impact on MBP expression of taurine addition on day 0 compared with days 1 to 3 ([1]; evaluated at day 6): significantly less efficacious | Impact on number of residual immature A2B5+ OPCs ([1]; taurine added on day 0, 1 or 3 to basal or drug-induced conditions, read at day 3 or day 6): minimal, albeit statistically significant, impact | MBP induction (Western blot), increase compared to benztropine-induced differentiation in the absence of taurine ([2]; 2 mM taurine added to benztropine (0.5 μM), 6 days): 2.0 fold | MBP induction (Western blot), increase compared to miconazole-induced differentiation in the absence of taurine ([2]; 2 mM taurine added to miconazole (2 μM), 6 days): 2.3 fold | Efficacy of induced OPC differentiation ([2]; added to benztropine- or miconazole-containing media): dramatically increase
